# Measurements published in patent US20220362165A1, “TETRABENAZINE TRANSDERMAL DELIVERY DEVICE” (SHINKEI THERAPEUTICS LLC, priority 2019, published 2022).
# Assay: clinical
# Conditions: male, human, in vivo
# Protocol: This was an open-label, randomized, two-treatment, two-period, two-sequence, crossover study under fasted conditions comparing the test and reference products. The study was conducted with 16 healthy, non-tobacco-, non-nicotine-using, adult male subjects. In one period of the study, one (1) TBZ patch, 8 mg/96 hr was applied to the subject's upper outer left arm and kept in place for 96 hours following an overnight fast of at least 10 hours. In the other study period, 1×12.5 mg Tetrabenazine Tablet (Lupin) was administered every 8 hours from Day 1 through Day 4 for a total daily dose of 37.5 mg and a total dose of 150 mg for the 12 doses over the 4 days. […]
# Blood samples were collected pre-dose and at intervals over 120 hours after dosing (0-hour) with the study drug in each study period. Samples were analyzed by the bioanalytical laboratory for those subjects who were dosed with at least one of the study products (Treatment A or B).
# The plasma concentrations of TBZ (RR and SS isomers) and its active metabolites (RRR, SSS, SRR and RSS) were measured by a fully validated analytical procedure. […]
# The plasma concentrations of TBZ (RR and SS isomers) and its HTBZ metabolites (RRR, SSS, SRR and RSS) were measured by a fully validated analytical procedure for those subjects who were dosed with at least one of the study products (Treatment A or B).
structure (smiles),measurement,value
"COc1cc2c(cc1OC)[C@H]1CC(=O)[C@H](CC(C)C)CN1CC2 [R,R-tetrabenazine, (3R,11bR)-1,3,4,6,7,11b-Hexahydro-9,10-dimethoxy-3-(2-methylpropyl)-2H-benzo[a]quinolizin-2-one]",half-life,~8.5 h
